Holding throughout (assay): NCI anticancer screen, dose series, 48 h
In test [1] the test system is A549 NSCLC.
The test system of test [2] is ACHN renal.
Test [3] relates to COLO 205 colon.
Test [4] deals with EKVX NSCLC.
Test [5] concerns HCC-2998 colon.
The test system of test [6] is HOP-62 NSCLC.
In test [7] the test system is SK-MEL-2 melanoma.
Test [8] deals with SNB-75 CNS.
For test [9], the system named is UO-31 renal.
The subject of test [10] is HS 578T breast.

For 15 molecules, TGI and GI50 results are on record in PubChem BioAssay (NCI).

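Briefly, cells in 96-well plates were exposed to five compound concentrations for 48 h, and endpoints were estimated by linear interpolation. GI50 = concentration required for 50% inhibition of growth. The concentration for full growth arrest is given as TGI.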 Where only a bound is given, the exact number is not on record here.

`O=C1CCCCCCCCCCC1CN1CCCCC1` (configuration not stated): the TGI in [1], in test [2], in test [3], in test [4], in [5] and in test [6] was above 100 µM throughout. The TGI in test [7], in test [8] and in test [9] was above 100 µM throughout.

Regarding `O=[N+]([O-])c1cc2c(cc1/C=N/n1c(CO)nc3ccccc31)OCO2`, the TGI in [1], in test [2], in test [3], in test [4], in test [6] and in [10] was above 100 µM in each case. In addition, the TGI in test [7], in [8] and in [9] was above 100 µM throughout.

Turning to `Nc1nc(N)c2cc(NCc3ccc(Cl)c(Cl)c3)ccc2n1`, the GI50 in [1] is 0.528 µM; in test [2], 1.31 µM; in [3], 1.32 µM; in test [5] it was 1.16 µM; in test [6] it was 1.63 µM; in [7] it was 1.82 µM. The GI50 was 1.23 µM in test [8] and 1.35 µM in test [9]. Also, the TGI in test [1] was found to be 1.82 µM; in test [2] it was 2.58 µM; in [3], 2.6 µM; in [5] it was 2.51 µM; in test [6] it was 3.01 µM; in test [7], 3.37 µM. In addition, the TGI stood at 2.48 µM in test [8] and 2.89 µM in test [9].

In the case of `O=C(NCc1cccc2ccccc12)N/N=C\c1ccc(Cl)cc1`, the TGI in test [2], in [3], in test [4], in [5], in test [6] and in [7] was above 100 µM in each case. Moreover, the TGI in [8] and in test [9] was above 100 µM throughout.

Turning to `O=S(=O)(/N=C(\NO)Nc1ccc(Cl)cc1)c1cccc2nsnc12`, the TGI in test [1] was above 100 µM; in [2] it was above 100 µM; in [3], above 100 µM; in test [4] it was 66 µM; in [6], above 100 µM; in [10], 85.6 µM. In addition, the results for the TGI in test [7], in test [8] and in [9] were 39.2 µM, above 100 µM and above 100 µM, respectively.

As to `CCCCCCCCCCCCCCCCOC[C@@H](COC(c1ccccc1)(c1ccccc1)c1ccccc1)O[P+](=S)OC` (some centres not stated), the TGI in test [1] came out at 21 µM; in [2], 29 µM; in test [3], 38.6 µM; in test [4], 31.5 µM; in test [10], 82.6 µM; in test [7], 33.3 µM. In addition, the TGI turned out to be 29.6 µM in test [8] and 30.1 µM in test [9].

On to `CCOC(=O)CC(=O)Nc1cccc2[nH]cnc12`, for which the TGI in [1], in [2], in [3], in [4], in test [6] and in test [10] was above 100 µM each time. In addition, the values for the TGI in test [7], in test [8] and in test [9] were above 100 µM, 98.1 µM and above 100 µM, respectively.

On to `COc1ccc(CN=C(N)N)c2ccccc12`, for which the TGI was above 100 µM in test [1]; above 100 µM in test [2]; 38 µM in test [3]; above 100 µM in test [4]; above 100 µM in test [6]; 54.9 µM in test [10]. The TGI in test [7] was 86.9 µM; in test [8], 55.2 µM; in test [9], 87.9 µM.

`COc1cc2c(cc1OC)C1(COc3cc(O)c(O)c(O)c3C1=O)C2` (configuration not stated): the TGI in test [1], in test [2], in [3], in [6], in test [10] and in [7] was above 50 µM in each case. For the same molecule, the TGI in test [8] and in test [9] was above 50 µM throughout.

As for `COc1cc2cc(C(=O)N3CC(CCl)c4c3cc(N)c3ccccc43)[nH]c2c(OC)c1OC` (configuration not stated), the TGI in [1] is 1.4 µM; in test [2], 0.108 µM; in [3], below 0.01 µM; in test [4], below 0.01 µM; in test [5] it was below 0.01 µM; in test [6], below 0.0109 µM. The TGI in [7], in test [8] and in test [9] was below 0.01 µM in each case.

As for `NNC(=O)c1nnn(CCc2ccccc2)c1C(=O)NN`, the TGI in [1], in test [2], in test [3], in test [4], in test [5] and in test [6] was above 100 µM each time. Besides, the TGI in test [7] and in test [9] was above 100 µM throughout.

For the molecule `FC(F)(F)c1cccc(-c2nc3ccccc3c3c2[C@@]2(N4CCCC4)CCCC[C@@H]32)c1`, the TGI in test [1] is above 100 µM; in [3] it was 30.4 µM; in test [4], above 100 µM; in [6], above 100 µM; in test [10] it was above 100 µM; in test [7] it was 41.3 µM. For the same molecule, the TGI is above 100 µM in test [8] and 48.9 µM in [9].

`N#Cc1c(-c2ccccc2)c(N=Nc2ccc(Cl)cc2)c(=O)n2c1[nH]c1ccccc12`: the TGI in [1], in test [2], in test [3], in [4], in test [5] and in [6] was above 100 µM in each case. The TGI in test [7], in test [8] and in test [9] was above 100 µM in each case.

With `Cc1cc(=O)oc2c(C)c(OCCCOc3ccc4c(C)cc(=O)oc4c3C)ccc12`, the TGI in [1], in test [4], in test [6], in test [7] and in test [9] was above 100 µM each time.

For `O=CC12C3CCC1C2C(=O)C3` (configuration not stated), the TGI in test [1], in [2], in test [3], in test [4], in test [5] and in test [6] was above 100 µM each time. Also, the TGI in [7] and in test [8] was above 100 µM each time.
